{"source": "paper PMC9961948", "about": "“Interaction of Amphipathic Peptide from Influenza Virus M1 Protein with Mitochondrial Cytochrome Oxidase” (International Journal of Molecular Sciences, 2023)", "key": {"[1]": {"target": "T1, cytochrome c oxidase (CcO) purified from heart mitochondria (Bos taurus, UniProt P00396+P07471+P68530)", "T1 construct": "Cytochrome c oxidase was purified from the heart mitochondria of Bos taurus; from tissue; host or cells: bovine heart mitochondria", "test": "Cytochrome oxidase activity of solubilized mitochondrial CcO (oxygen uptake)", "format": "biochemical"}, "[2]": {"system": "cytochrome c oxidase (CcO), peroxidase activity", "test": "Peroxidase partial activity of solubilized CcO (peroxidation of ferrocyanide)", "format": "biochemical, Bos taurus", "details": "50 μM P4; 0.6 μM solubilized CcO, 0.2 mM ferrocyanide with equimolar ferricyanide, 4 mM H2O2", "method": "The two-electron reduction of H2O2 to water refers to the peroxidase phase of the CcO catalytic cycle. As shown previously, this reaction can be carried out aerobically using a high-potential electron donor [51]. We followed this partial activity of CcO in the presence of a ferro/ferricyanide pair at E’ ≈ +420 mV when the oxidase reaction becomes negligible. Peroxidation of ferrocyanide by CcO was recorded spectrophotometrically (Figure 3).\nPeroxidation of 0.2 mM ferrocyanide (against the background of equimolar ferricyanide) was monitored at 0.6 μM solubilized CcO. The reaction was triggered by the addition of 4 mM H2O2 (shown by the arrow). […] The initial jump upon H2O2 addition reflects spectral response in the γ-band of heme a3 upon oxoferryl intermediate formation.\nPeroxidase partial activity of CcO was assayed in BM following peroxidation of ferrocyanide by the absorption difference at 420 nm vs. 500 nm references, using the spectrophotometer SLM Aminco DW-2000 (SLM Instruments, Urbana, IL, USA) in a dual-wavelength mode. In order to obtain a redox buffer with Em ≈ 420 mV, equal amounts of ferri- and ferrocyanide were mixed. No ferrocyanide oxidase activity was observed until the peroxidase reaction was initiated by the addition of H2O2. The reaction was carried out in a standard semi-micro cuvette (Hellma, Mullheim, Germany) with blackened side walls and a 10 mm light pathway."}, "[3]": {"target": "T2, CcO in rat liver mitochondria (Rattus norvegicus, UniProt P00406+P05503)", "T2 construct": "Rat liver mitochondria were isolated by differential centrifugation; from tissue; host or cells: rat liver mitochondria", "T2 sequence (P00406 whole entry, other chains not shown)": "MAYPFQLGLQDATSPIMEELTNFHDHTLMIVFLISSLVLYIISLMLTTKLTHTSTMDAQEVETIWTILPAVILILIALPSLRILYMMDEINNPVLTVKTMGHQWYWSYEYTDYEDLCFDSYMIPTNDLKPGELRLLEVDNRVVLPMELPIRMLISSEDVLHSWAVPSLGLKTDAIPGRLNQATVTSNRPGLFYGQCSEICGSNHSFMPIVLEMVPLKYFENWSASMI", "test": "CcO activity in the mitochondrial membrane (respiration of rat liver mitochondria)", "format": "biochemical"}, "[4]": {"system": "CcO reconstituted into asolectin vesicles", "test": "CcO activity in asolectin proteoliposomes", "format": "biochemical, Bos taurus", "details": "peptide up to 150 μM"}, "[5]": {"test": "Permeabilization of calcein-loaded asolectin liposomes (calcein release)", "details": "5 μM peptide"}}, "note": "Where two headings read alike, the source gives them in different places."}
{"substance": "Ac-RTKLWEMLVELGNMDKAVKLWRKLKR-NH2 [P4]", "values": [{"measurement": "final rate of the oxidase reaction, % of the initial", "setting": "[1]; 20 μM P4 added in the course of the reaction, constant level 1.5 min later, solubilized CcO 20 nM", "result": "≤ 15", "unit": "%"}, {"measurement": "Ki", "setting": "[1]; solubilized bovine heart CcO 20 nM, oxygen uptake, Clark electrode, 25 °C, BM 50 mM Hepes/Tris pH 7.6, 50 mM KCl, 1 mM (0.05%) DM, 5 mM ascorbate, 0.1 mM TMPD, 10 μM cytochrome c, fit by Equation (1), read-out: Inhibition of CcO, Solubilized, Ki(app)", "result": 0.0076, "unit": "mM"}, {"measurement": "Ki", "setting": "[1]; solubilized mitochondrial CcO, intercept of linear dependence of Ki(app) on [DM], read-out: true Ki (extrapolation of DM to zero)", "result": 0.003, "unit": "mM"}, {"measurement": "rate of peroxidase reaction (ferricyanide formation) upon addition of peptide", "setting": "[2]", "result": "did not change"}, {"measurement": "inhibitor concentration up to which the rate of the oxidase reaction remains almost unchanged", "setting": "[3]", "result": "~ 10 μM"}, {"measurement": "oxidase reaction rate of CcO in proteoliposomes upon addition of peptide", "setting": "[4]", "result": "does not change the reaction rate"}, {"measurement": "time to reach the 100% level of calcein release", "setting": "[5]; 100% = after Triton X-100 0.1%", "result": 3, "unit": "min"}, {"measurement": "t1/2 of fluorescence increase (calcein release)", "setting": "[5]; liposomes 0.1 mg lipid/mL, 20 mM MOPS/Tris pH 7.3, 0.2 mM EDTA, fluorescence 520 nm (excitation 490 nm)", "result": "~ 12 s"}]}
